# Columns and labels:
# Mus musculus [1] = assay: In vivo efficacy against Staphylococcus aureus 10649, in mouse protection test when administered perorally (po); format: functional
# Klebsiella pneumoniae [2] = assay: In vitro Minimum inhibitory concentration against Klebsiella pneumoniae 8045; format: functional
# Staphylococcus aureus [3] = assay: In vitro Minimum inhibitory concentration against Staphylococcus aureus 45; format: functional
# Streptococcus pyogenes = assay: In vitro Minimum inhibitory concentration against Streptococcus pyogenes 930; format: functional
# Mus musculus [4] = assay: In vivo efficacy against Escherichia coli Juhl, in mouse protection tests. when administered perorally (po); format: functional
# Streptococcus equinus = assay: In vitro Minimum inhibitory concentration against Streptococcus bovis A5169; format: functional
# Acinetobacter [5] = assay: In vitro Minimum inhibitory concentration against Acinetobacter CMX 669; format: functional
# Enterococcus faecium = assay: In vitro Minimum inhibitory concentration against Streptococcus faecium ATCC 8043; format: functional
# Pseudomonas aeruginosa [6] = assay: In vitro Minimum inhibitory concentration against Pseudomonas aeruginosa 5007; format: functional
# [7] = system: Staphylococcus epidermidis; assay: In vitro Minimum inhibitory concentration against Staphylococcus epidermidis 3519; format: functional
# Staphylococcus aureus [8] = assay: In vitro Minimum inhibitory concentration against Staphylococcus aureus A5177; format: functional
# Streptococcus agalactiae = assay: In vitro Minimum inhibitory concentration against Streptococcus agalactiae CMX 508; format: functional
# Mus musculus [9] = assay: In vivo efficacy against Escherichia coli Juhl, in mouse protection test when administered subcutaneously (sc); format: functional
# Staphylococcus aureus [10] = assay: In vitro Minimum inhibitory concentration against Staphylococcus aureus ATCC 6538P; format: functional
# Staphylococcus aureus [11] = assay: In vitro Minimum inhibitory concentration against Staphylococcus aureus CMX 686B; format: functional
# Pseudomonas aeruginosa [12] = assay: In vitro Minimum inhibitory concentration against Pseudomonas aeruginosa K799/WT; format: functional
# Mus musculus [13] = assay: In vivo efficacy against Staphylococcus aureus 10649, in mouse protection test when administered subcutaneously (sc); format: functional
# Escherichia coli [14] = assay: In vitro Minimum inhibitory concentration against Escherichia coli Juhl; format: functional
# [15] = Partition coefficient (logP); format: physicochemical; conditions: octanol/water
# Mus musculus [16] = assay: Blood level was evaluated at 6.0 hr when administered at a peroral dose of 25 mg/kg; format: functional; conditions: route oral
# Mus musculus [17] = assay: Blood level was evaluated at 3.0 hh when administered at a peroral dose of 25 mg/kg; format: functional; conditions: route oral
# Mus musculus [18] = assay: Blood level was evaluated at 1.0 hr when administered at a peroral dose of 25 mg/kg; format: functional; conditions: route oral
# Mus musculus [19] = assay: Blood level was evaluated by a disk agar diffusion assay at 0.5 hr when administered at a peroral dose of 25 mg/kg; format: functional; conditions: route oral
# [20] = Compound was evaluated for the solubility in Ringer's buffer solution; format: ADME; conditions: Ringer's buffer solution; read-out: Solubility
# Escherichia coli [21] = assay: Supercoiling inhibition assay using purified DNA gyrase isolated from Escherichia coli H560; format: functional; conditions: read-out: I50
# Mus musculus [22] = assay: In vivo efficacy against Escherichia coli Juhl, in mouse protection test when the administered perorally (po); format: functional
# Mus musculus [23] = assay: Blood level was evaluated at 24.0 hr when administered at a peroral dose of 25 mg/kg; format: functional; conditions: route oral
# Mus musculus [24] = assay: Blood level was evaluated at 2.0 hr when administered at a peroral dose of 25 mg/kg; format: functional; conditions: route oral
# Klebsiella pneumoniae [25] = assay: In vitro Minimum inhibitory concentration against Klebsiella pneumoniae 8045
# Acinetobacter [26] = assay: In vitro Minimum inhibitory concentration against Acinetobacter CMX 669
# [27] = Blood level was evaluated by a disk agar diffusion assay at 3.0 hh when administered at a peroral dose of 100 mg/kg; format: ADME, organism-based; set-up: dose 100 mg/kg, route oral; conditions: mouse, po, read-out: Blood level
SMILES,ED50 (Mus musculus [1]) [mg/kg],MIC (Klebsiella pneumoniae [2]) [µg/mL],MIC (Staphylococcus aureus [3]) [µg/mL],MIC (Streptococcus pyogenes) [µg/mL],MIC (Streptococcus equinus) [µg/mL],"MIC (Acinetobacter [5]; Acinetobacter, read-out: MIC) [µg/mL]",MIC (Enterococcus faecium) [µg/mL],MIC (Pseudomonas aeruginosa [6]) [µg/mL],MIC [7] [µg/mL],MIC (Staphylococcus aureus [8]) [µg/mL],MIC (Streptococcus agalactiae) [µg/mL],ED50 (Mus musculus [9]) [mg/kg],MIC (Staphylococcus aureus [10]) [µg/mL],MIC (Staphylococcus aureus [11]) [µg/mL],MIC (Pseudomonas aeruginosa [12]) [µg/mL],ED50 (Mus musculus [13]) [mg/kg],MIC (Escherichia coli [14]) [µg/mL],logP [15],solubility [20] [µg/mL],also measured
CCC1C[C@H](N)CN1c1cc2c(cc1F)c(=O)c(C(=O)O)cn2-c1ccc(F)cc1F (stereo partly specified),2.4,0.05,0.1,0.1,0.2,0.2,0.2,6.2,0.1,0.1,0.1,2.4,0.05,0.05,0.78,0.8,0.1,–,–,ED50 (Mus musculus [4]): 9.6 mg/kg
C[C@H]1C[C@H](N)CN1c1nc2c(cc1F)c(=O)c(C(=O)O)cn2-c1ccc(F)cc1F,> 2.5,0.02,0.05,0.2,0.2,0.1,0.1,0.78,0.05,0.05,0.2,0.6,0.02,0.02,0.78,0.9,0.02,-0.2,150,Blood level (Mus musculus [16]): 1.3 µg/mL; Blood level (Mus musculus [17]): 2.8 µg/mL; Blood level (Mus musculus [18]): 3.2 µg/mL; Blood level (Mus musculus [19]): 5.9 µg/mL; IC50 (Escherichia coli [21]): 0.6 µg/mL; ED50 (Mus musculus [22]): 2.7 mg/kg; Blood level (Mus musculus [23]): 0.2 µg/mL; Blood level (Mus musculus [24]): 3.3 µg/mL
N[C@H]1CC(CN2CCCC2)N(c2cc3c(cc2F)c(=O)c(C(=O)O)cn3-c2ccc(F)cc2F)C1 (stereo partly specified),–,–,3.1,25,25,–,6.2,1.56,3.1,3.1,25,–,1.56,1.56,1.56,–,0.78,-0.56,680,MIC (Klebsiella pneumoniae [25]): 0.39 µg/mL
NC1CCN(c2cc3c(cc2F)c(=O)c(C(=O)O)cn3-c2ccc(F)cc2F)C1 (stereo unspecified),–,0.05,0.1,0.2,0.78,0.1,0.2,1.56,0.1,0.1,0.2,–,0.05,0.05,–,–,0.05,–,–,MIC (Acinetobacter [26]): 0.1 µg/mL; MIC (Acinetobacter [5]): 0.1 µg/mL; concentration at 3 h [27]: 900 ng/mL
